# From PMC10065799, “High-throughput profiling of sequence recognition by tyrosine kinases and SH2 domains using bacterial peptide display” (eLife, 2023)
# Key:
# c-Src kinase domain = c-Src kinase domain (Homo sapiens, UniProt P12931); experiment: pTyr-Var library bacterial peptide display kinase screen (enrichment scores); type: biochemical;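 as to c-Src hit?: Hit requires p below 0.05 and at least twofold variant vs reference change plus filters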
# Fyn kinase domain = experiment: as above; type: biochemical, human;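 as to Fyn hit?: Hit requires p below 0.05 and at least twofold variant vs reference change plus filters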
# Hck kinase domain = experiment: as above; type: biochemical, human
# c-Abl kinase domain = target: T1, c-Abl kinase domain (Mus musculus, UniProt P00520); experiment: as above; type: biochemical;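 as to c-Abl hit?: Hit requires p below 0.05 and at least twofold variant vs reference change plus filters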;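 as to screen: log2 fold change in enrichment of variant over reference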
# T1 sequence (P00520 242-493 limits assumed): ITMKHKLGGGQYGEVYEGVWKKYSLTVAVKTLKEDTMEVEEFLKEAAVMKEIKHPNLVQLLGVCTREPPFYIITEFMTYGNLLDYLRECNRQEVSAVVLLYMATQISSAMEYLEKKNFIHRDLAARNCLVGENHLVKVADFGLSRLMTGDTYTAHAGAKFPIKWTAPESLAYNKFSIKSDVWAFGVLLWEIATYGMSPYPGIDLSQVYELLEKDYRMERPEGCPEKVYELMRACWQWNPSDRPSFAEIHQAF
# Jak2 = experiment: as above; type: biochemical, human
# AncSZ kinase domain = experiment: as above; type: biochemical;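 as to AncSZ hit?: Hit requires p below 0.05 and at least twofold variant vs reference change plus filters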
# Fer kinase domain = experiment: as above; type: biochemical, mouse;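 as to screen: log2 fold change in enrichment of variant over reference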
# Fes = experiment: as above; type: biochemical
# FGFR1 kinase domain = experiment: as above; type: biochemical, human
# FGFR3 kinase domain = experiment: as above; type: biochemical, human
# EPHB1 kinase domain = experiment: as above; type: biochemical, human;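 as to screen: log2 fold change in enrichment of variant over reference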
# EPHB2 kinase domain = experiment: as above; type: biochemical, human
# MERTK kinase domain = experiment: as above; type: biochemical, human
# [1] = tested on: 4G10 Platinum pan-phosphotyrosine antibody; experiment: Phosphorylated pTyr-Var library selection with biotinylated pan-phosphotyrosine antibody; type: binding, mouse; conditions: enrichment score, sheet SH2-vs-peptide
# Method: After the desired time of library phosphorylation, kinase activity was quenched with 25 mM EDTA and the cells were washed with PBS containing 0.2% BSA. Kinase-treated cells were then labeled with a 1:1000 dilution of biotinylated 4G10 Platinum anti-phosphotyrosine antibody (Millipore) for an hour on ice and washed with PBS containing 0.1% BSA and 2 mM EDTA (isolation buffer). The cells were finally resuspended in PBS containing 0.1% BSA. The phosphorylated, antibody-labeled cells were then mixed with magnetic beads from Dynabeads FlowComp Flexi kit (Invitrogen), at a ratio of 37.5 μL of washed beads per 50 μL of cell suspension, diluted into 450 μL of isolation buffer. The suspension was rotated at 4 °C for 30 minutes, then 375 μL of isolation buffer was added and the beads were separated from the bulk solution on a magnetic rack. The beads were washed once with 1 mL of isolation buffer, and then the supertantant were removed by aspiration. […] The bead/lysate mixture was centrifuged to pellet the beads and the mixture was stored at -20 °C.
# c-Src SH2 domain = c-Src SH2 domain (Homo sapiens, UniProt P12931); experiment: pTyr-Var library SH2 domain screen with SH2-dynabeads (enrichment scores); conditions: sheet c-Src
# SHP2 C-SH2 domain = experiment: as above
# Grb2 SH2 domain = experiment: as above
# [2] = mean of log2 of enrichment over R1-R4
# [3] = pTyr-Var library, enrichment score, replicate 1
# [4] = pTyr-Var library, enrichment score, replicate 3
# [5] = pTyr-Var library, enrichment score, replicate 4
# [6] = variant versus reference peptide
# [7] = variant versus reference peptide, significant hit TRUE/FALSE
# [8] = mean of log2(variant) minus mean of log2(reference)
# [9] = mean of log2 enrichment of variant peptide, n = 5
# [10] = pTyr-Var library, variant peptide enrichment, mean of n = 5
# [11] = mean of log2 enrichment of variant peptide, n = 4
# [12] = pTyr-Var library, variant peptide enrichment, mean of n = 4
sequence,measurement,setting,value
LHVGFYESDVM [A2M_Y708_R704H],c-Src mean of log2(enrichment),c-Src kinase domain; [2],-0.6428
same,c-Src enrich. R1,c-Src kinase domain; [3],0.8102
same,c-Src enrich. R3,c-Src kinase domain; [4],0.4328
same,c-Src enrich. R4,c-Src kinase domain; [5],0.9633
same,c-Src difference (mean log2 variant - mean log2 reference),c-Src kinase domain; [6],-1.034
same,c-Src hit?,c-Src kinase domain; [7],FALSE
same,Fyn mean of log2(enrichment),Fyn kinase domain; [2],-0.6247
same,Fyn enrich. R1,Fyn kinase domain; [3],1.119
same,Fyn enrich. R3,Fyn kinase domain; [4],0.683
same,Fyn enrich. R4,Fyn kinase domain; [5],0.4956
same,Fyn difference (mean log2 variant - mean log2 reference),Fyn kinase domain; [6],-0.4761
same,Fyn hit?,Fyn kinase domain; [7],FALSE
same,Hck enrich. R1,Hck kinase domain; [3],0.9181
same,Hck enrich. R3,Hck kinase domain; [4],0.8034
same,Hck enrich. R4,Hck kinase domain; [5],0.2649
same,Hck hit?,Hck kinase domain; [7],FALSE
same,Screen,"c-Abl kinase domain; fig5-data2, sheet ""Abl"", Screen for the variant/reference peptide pair, pTyr-Var library",-1.318
same,c-Abl mean of log2(enrichment),c-Abl kinase domain; [2],-0.4279
same,c-Abl enrich. R1,c-Abl kinase domain; [3],0.51
same,c-Abl enrich. R3,c-Abl kinase domain; [4],0.9195
same,c-Abl enrich. R4,c-Abl kinase domain; [5],0.7727
same,c-Abl hit?,c-Abl kinase domain; [7],FALSE
same,Jak2 mean of log2(enrichment),Jak2; mean of log2 of enrichment over R1-R3,0.3892
same,Jak2 enrich. R1,Jak2; [3],1.336
same,Jak2 enrich. R3,Jak2; [4],1.016
same,Jak2 difference (mean log2 variant - mean log2 reference),Jak2; [6],-0.5933
same,Jak2 hit?,Jak2; [7],FALSE
same,AncSZ mean of log2(enrichment),AncSZ kinase domain; mean of log2 of enrichment over R1-R5,0.1983
same,AncSZ enrich. R1,AncSZ kinase domain; [3],0.795
same,AncSZ enrich. R3,AncSZ kinase domain; [4],1.048
same,AncSZ enrich. R4,AncSZ kinase domain; [5],1.095
same,AncSZ enrich. R5,"AncSZ kinase domain; pTyr-Var library, enrichment score, replicate 5",1.306
same,AncSZ difference (mean log2 variant - mean log2 reference),AncSZ kinase domain; [6],-1.317
same,AncSZ hit?,AncSZ kinase domain; [7],FALSE
same,Fer mean of log2(enrichment),Fer kinase domain; [2],0.8907
same,Fer enrich. R1,Fer kinase domain; [3],2.223
same,Fer enrich. R3,Fer kinase domain; [4],2.063
same,Fer enrich. R4,Fer kinase domain; [5],1.22
same,Screen,"Fer kinase domain; sheet ""Fer"", value of the variant peptide against its reference peptide in the pTyr-Var library screen with Fer",0.2498
same,Fer difference (mean log2 variant - mean log2 reference),Fer kinase domain; [6],0.2498
same,Fer hit?,Fer kinase domain; [7],FALSE
same,Fes mean of log2(enrichment),Fes; mean of log2 of enrichment over R1-R6,0.6236
same,Fes difference (mean log2 variant - mean log2 reference),Fes; [6],-0.8632
same,difference,FGFR1 kinase domain; [8],-0.559
same,mean of log2(variant),FGFR1 kinase domain; [9],-0.3446
same,var. mean,FGFR1 kinase domain; [10],0.8886
same,difference,FGFR3 kinase domain; [8],-1.255
same,mean of log2(variant),FGFR3 kinase domain; [9],0.01497
same,var. mean,FGFR3 kinase domain; [10],1.21
same,difference,EPHB1 kinase domain; [8],-0.4797
same,mean of log2(variant),EPHB1 kinase domain; [11],0.4103
same,var. mean,EPHB1 kinase domain; [12],1.406
same,Screen,"EPHB1 kinase domain; sheet EPHB1, effect of the variant peptide relative to its reference peptide in the pTyr-Var library screen (enrichment scores)",-0.4797
same,difference,EPHB2 kinase domain; [8],0.5535
same,mean of log2(variant),EPHB2 kinase domain; [11],0.1669
same,var. mean,EPHB2 kinase domain; [12],1.142
same,difference,MERTK kinase domain; [8],-1.201
same,mean of log2(variant),MERTK kinase domain; [11],0.1586
same,var. mean,MERTK kinase domain; [12],1.154
same,4G10 (mean),[1],1.221
same,difference,c-Src SH2 domain; [8],0.05278
same,mean of log2(variant),"c-Src SH2 domain; mean of log2 enrichment of variant peptide, R1-R3",2.054
same,var. mean,"c-Src SH2 domain; variant peptide, mean of R1-R3",4.231
same,difference,"SHP2 C-SH2 domain; SHP2-C SH2, mean of log2(variant) minus mean of log2(reference)",-0.5777
same,mean of log2(variant),"SHP2 C-SH2 domain; SHP2-C SH2, mean of log2 enrichment of variant, R1-R3",-0.5659
same,hit?,"SHP2 C-SH2 domain; SHP2-C SH2, variant versus reference significant hit call",FALSE
same,var. mean,"SHP2 C-SH2 domain; variant peptide enrichment score, SHP2-C SH2, mean of R1-R3",0.7213
same,difference,"Grb2 SH2 domain; Grb2 SH2, mean of log2(variant) minus mean of log2(reference)",0.0213
same,mean of log2(variant),"Grb2 SH2 domain; Grb2 SH2, mean of log2 enrichment of variant, R1-R3",-0.08185
same,hit?,"Grb2 SH2 domain; Grb2 SH2, variant versus reference significant hit call",FALSE
same,var. mean,"Grb2 SH2 domain; variant peptide enrichment score, Grb2 SH2, mean of R1-R3",0.9505
